According to publication PMC4335062, “Data-Driven Prediction and Design of bZIP Coiled-Coil Interactions” (PLoS Computational Biology, 2015):
Read-outs that look alike come from different tables or passages of the source. Where no end group is shown, it is not given here.

Key:
Assay in all cases: Direct-binding FRET assay
ATF2 = molecular target: T1, ATF2 (Homo sapiens, UniProt P15336); settings: read-out: Kd
T1 construct: made in house
T1 sequence (P15336 352-415 limits assumed): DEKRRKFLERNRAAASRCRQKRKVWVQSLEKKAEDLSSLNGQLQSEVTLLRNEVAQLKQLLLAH
Procedure: (§1) The direct binding assay was performed manually in 384-well plates and is similar to a previously described assay. Wells were filled with 20 μL of 1 mM TCEP-HCl. A 4 μM stock of acceptor protein was made fresh in 1 mM TCEP-HCl, and 20 μL was titrated in 2-fold dilutions over the wells. […] The direct-binding FRET data were fit as previously described. Briefly, the Kd of the designed peptide homodimer was experimentally determined and used with previously determined target homodimer Kd values to determine the heterodimer Kd. The homodimer Kd values used for the human bZIPs were from; experiments done by […] et al. used the same protein constructs for the human bZIP proteins, the same buffer conditions, and the same assay. The fitting used a system of ordinary differential equations to describe the concentrations of homo and heterodimers formed by the donor (D) and acceptor (A) as a function of the heterodimer Kd. MATLAB was used to simulate the binding experiment for different Kd values, and the value that gave the best agreement between simulation and experiment was assigned. A minimum 15% change in the donor fluorescence upon titrating the acceptor peptide from 0 to 1000 nM was required for a fit to be attempted. If this minimum was not met, the interaction was classified as “NS” for no signal change. […] These interactions were marked “AS” to indicate anomalous signal. We attributed this to interactions between the peptides, the dyes and the walls of the assay plates at low concentrations. These curves could not be fit, given their unusual shapes at low concentrations of acceptor. For such curves, we removed the first five points and re-fit the data. […] One example of this is increasing concentrations of acceptor causing an increase in donor fluorescence.

BATF2 = molecular target: T2, BATF2 (Homo sapiens, UniProt Q8N1L9); settings: mean or single, read-out: Kd
T2 construct: made in house
T2 sequence (Q8N1L9 17-80 limits assumed): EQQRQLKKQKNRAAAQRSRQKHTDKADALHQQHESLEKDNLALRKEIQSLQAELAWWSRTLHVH
Procedure: as §1

DBP = molecular target: T3, DBP (Homo sapiens, UniProt Q10586); settings: read-out: Kd
T3 construct: made in house
T3 sequence (Q10586 255-318 limits assumed): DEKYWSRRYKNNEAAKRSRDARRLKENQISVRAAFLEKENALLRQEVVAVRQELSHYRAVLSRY
Procedure: as §1

FOSL1 = molecular target: T4, FOSL1 (Homo sapiens, UniProt P15407); settings: mean or single, read-out: Kd
T4 construct: made in house
T4 sequence (P15407 105-168 limits assumed): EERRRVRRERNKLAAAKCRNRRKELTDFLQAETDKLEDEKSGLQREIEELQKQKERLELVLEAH
Procedure: as §1

CREBZF = molecular target: T5, CREBZF (Homo sapiens, UniProt Q9NS37); settings: read-out: Kd
T5 construct: made in house
T5 sequence (Q9NS37 204-267 limits assumed): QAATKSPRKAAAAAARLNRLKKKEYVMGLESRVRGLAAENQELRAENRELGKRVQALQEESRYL
Procedure: as §1

BATF3 = molecular target: T6, BATF3 (Homo sapiens, UniProt Q9NR55); settings: mean or single, read-out: Kd
T6 construct: made in house
T6 sequence (Q9NR55 35-98 limits assumed): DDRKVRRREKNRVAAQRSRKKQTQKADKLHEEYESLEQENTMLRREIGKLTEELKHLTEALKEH
Procedure: as §1

BATF = molecular target: T7, BATF (Homo sapiens, UniProt Q16520); settings: read-out: Kd
T7 construct: made in house
T7 sequence (Q16520 26-89 limits assumed): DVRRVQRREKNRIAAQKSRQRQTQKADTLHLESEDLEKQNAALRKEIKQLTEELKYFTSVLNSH
Procedure: as §1

NFE2L2 = molecular target: T8, NFE2L2 (Homo sapiens, UniProt Q16236); settings: read-out: Kd
T8 construct: made in house
T8 sequence (Q16236 497-560 limits assumed): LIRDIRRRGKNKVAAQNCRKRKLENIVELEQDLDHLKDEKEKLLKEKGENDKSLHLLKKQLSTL
Procedure: as §1

CREB3L3 = molecular target: T9, CREB3L3 (Homo sapiens, UniProt Q68CJ9); settings: mean or single, read-out: Kd
T9 construct: made in house
T9 sequence (Q68CJ9 243-306 limits assumed): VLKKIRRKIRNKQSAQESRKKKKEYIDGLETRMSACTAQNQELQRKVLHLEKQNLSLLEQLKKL
Procedure: as §1

CREB3L1 = molecular target: T10, CREB3L1 (Homo sapiens, UniProt Q96BA8); settings: read-out: Kd
T10 construct: made in house
T10 sequence (Q96BA8 290-353 limits assumed): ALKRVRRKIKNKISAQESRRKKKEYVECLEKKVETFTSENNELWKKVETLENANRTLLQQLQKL
Procedure: as §1

[1] = 4°C, C-terminal fluorescein design as donor, TAMRA target titrated
[2] = 4°C, C-terminal rhodamine design, mean or single
[3] = 4°C, N-terminal rhodamine design, mean or single
[4] = 23°C, C-terminal fluorescein design as donor, TAMRA target titrated
[5] = 23°C, C-terminal rhodamine design, mean or single
[6] = 23°C, N-terminal rhodamine design, mean or single
[7] = 37°C, C-terminal fluorescein design as donor, TAMRA target titrated
[8] = 37°C, C-terminal rhodamine design, mean or single
[9] = 37°C, N-terminal rhodamine design, mean or single
[10] = 4°C, C-terminal rhodamine design
[11] = 4°C, N-terminal rhodamine design
[12] = 23°C, C-terminal rhodamine design
[13] = 23°C, N-terminal rhodamine design
[14] = 37°C, C-terminal rhodamine design
[15] = 37°C, N-terminal rhodamine design

Measured: Kd

EREAQLENRVAHLKEKNQELKAQNLHLKEALSEAQNRNQELKNDA [XBP1-d1]
> 1 µM: ATF2; [1] | ATF2; [2] | ATF2; [3] | ATF2; [4] | ATF2; [5] | ATF2; [6] | ATF2; [7] | ATF2; [8] | ATF2; [9] | BATF2; [11] | BATF2; [12] | BATF2; [13] | BATF2; [14] | BATF2; [15] | DBP; [1] | DBP; [2] | DBP; [3] | DBP; [4] | DBP; [5] | DBP; [6] | DBP; [7] | DBP; [8] | DBP; [9] | FOSL1; [10] | FOSL1; [11] | FOSL1; [12] | FOSL1; [13] | FOSL1; [14] | FOSL1; [15] | CREBZF; [1] | CREBZF; [3] | CREBZF; [4] | CREBZF; [6] | CREBZF; [7] | CREBZF; [8] | CREBZF; 37°C, C-terminal rhodamine design, repeat 1 | CREBZF; 37°C, C-terminal rhodamine design, repeat 2 | CREBZF; 37°C, C-terminal rhodamine design, repeat 3 | CREBZF; [9] | BATF3; [11] | BATF3; [12] | BATF3; [13] | BATF3; [14] | BATF3; [15] | BATF; [3] | BATF; [4] | BATF; [5] | BATF; [6] | BATF; [7] | BATF; [8] | BATF; [9] | NFE2L2; [1] | NFE2L2; [2] | NFE2L2; [3] | NFE2L2; [4] | NFE2L2; [5] | NFE2L2; [6] | NFE2L2; [7] | NFE2L2; [8] | NFE2L2; [9] | CREB3L3; [10] | CREB3L3; [11] | CREB3L3; [12] | CREB3L3; [13] | CREB3L3; [14] | CREB3L3; [15] | CREB3L1; [1] | CREB3L1; [2] | CREB3L1; [3] | CREB3L1; [4] | CREB3L1; [5] | CREB3L1; [6] | CREB3L1; [7] | CREB3L1; [8] | CREB3L1; [9]
< 0.2 µM: BATF2; [10]
> 5 µM: BATF3; [10] | BATF; [1] | BATF; [2]
